Reference: patent US5212158A, “Derivatives of L-proline, their preparation and their biological uses” (Inorgan SA Recherche & Developpement Pharmaceutiques, CAS, priority 1987, dated 1993)
Residues, ends and D or L forms follow the SMILES beside them. *: point of attachment. PhAc = O=C(Cc1ccccc1)*; Bz = O=C(c1ccccc1)*

Experiments:
mouse = assay: Test of passive avoidance: amnesia induced by scopolamine; assay type: in vivo; details: for dose with significant/antagonistic effect on scopolamine amnesia: i.p. route 60 minutes before Assay 1; for dose at which activity is significant / active dose, scopolamine amnesia test / activity in the scopolamine amnesia test: oral administration; for activity in the scopolamine amnesia test: at 2, 8 and 32 mg/kg
Description: The procedure described by Glick and Zimmerberg in Behavioural Biology, 1972, 7: 245-254 and by Lenegre et al in Pharmacol. Biochem. Behav., 29 (3) 1988 were used.
The mouse is introduced into the illuminated compartment of a two-compartment box. When it crosses into the darker component its paws receive electric shocks of 0.3 mA until it returns into the illuminated compartment (Assay 1).
When the mouse is returned to the box 24 hours later (Assay 2), it avoids going into the darker component. An i.p. injection of scopolamine (1 mg.kg^-1) 30 minutes before Assay 1 reduces the memory of this experience as is reflected in the delay of the reaction of the mouse before it crosses to the darker compartment in Assay 2. […]
Piracetam was used as reference substance.

mice of the NMRI strain [1] = assay: Test of passive avoidance: amnesia induced by diazepam; assay type: in vivo, mouse; details: for dose with statistically significant effect / dose reducing diazepam amnesia: 60 minutes before Assay 1, piracetam by the i.p. route
Description: A volume of 0.25 ml/20 g of body weight of the compound of Example 1 (suspension in 5% gum arabic) is administered to mice of the NMRI strain or, in the case of the reference substance, an aqueous solution of piracetam or of diazepam (5% suspension in gum arabic) is administered. The control animals receive only injections of the vehicle (suspension of gum arabic). The test is carried out at indicated above for the induction of amnesia by the injection of scopolamine, with exception that this latter is replaced by diazepam. An injection of diazepam by the i.p. route 30 minutes before Assay 1 at a dose of 1 mg.kg^-1 reduces memory in a significant manner as is shown by the diminution of the reaction time in the mouse for crossing to the dark compartment during Assay 2.

GH = assay: Effect on adenohypophyseal hormone secretions: GH radioimmunoassay; assay type: in vivo, rat; details: male rats; 32 mg/kg IP; plasma 30 min later
Description: (§1) Male rats received 2 mg/kg, 8 mg/kg, or 32 mg/kg IP of product of example 1 in arabic gum (2.5%) and 32 mg/kg IP of products of examples 2 and 3. Rats were killed 30 min. later by decapitation and plasma samples were aliquoted and kept frozen (-20° C.) until assays. Before the experiments, the rats have been accustomed to handling to avoid any stress effect.
(§2) Hormones were assayed using radioimmunoassays for prolactin, GH and TSH.

TSH = assay: Effect on adenohypophyseal hormone secretions: TSH radioimmunoassay; assay type: in vivo, rat; details: male rats, plasma 30 min later; for activity on TSH levels: 32 mg/kg IP
Description: as §1, §2

prolactin = assay: Effect on adenohypophyseal hormone secretions: prolactin radioimmunoassay; assay type: in vivo, rat; details: male rats, plasma 30 min later; for activity on prolactin levels: 32 mg/kg IP
Description: as §1, §2

NMRI mice = assay: Potentiation of the effects of L-dopa; assay type: in vivo, mouse; details: oral 8 and 32 mg/kg one hour before L-dopa 150 mg/kg i.p.
Description: A compound of the invention is adiministered orally at doses of 2, 8 and 32 mg/kg to NMRI mice one hour before the intraperitoneal administration of 150 mg/kg of L-dopa.

[2] = test system: male mice of the NMRI strain; assay: Irwin test; assay type: in vivo, mouse
Description: A volume of 0.25 ml/20 g of body weight of a suspension of the compound of the invention in 5% gum arabic is administered to male mice of the NMRI strain by the i.p. route. The control animals received only the 5% suspension of gum arabic. Changes in behaviour, neurotoxicity symptoms, the diameter of the pupil and the rectal temperature are recorded in the standardized observation schedule according to Irwin in Psychopharmacologia, 1968, 13, 222-257. These observations were made at 15, 30, 60, 120 and 180 minutes after injection and 24 hours later. The compounds of the invention were studied at doses of 1024, 512 and 256 mg.kg^-1.

mice of the NMRI strain [3] = assay: Antagonism of sleep induced by barbiturates; assay type: in vivo, mouse; details: oral 2 and 8 mg/kg one hour before barbital 50 mg/kg i.p.; compared with a control group
Description: A compound of the invention is administered orally at doses of 2, 8 and 32 mg.kg^-1 to mice of the NMRI strain one hour before the intraperitoneal administration of barbital at a dose of 50 mg/kg.

[4] = Solubility of the product obtained; assay type: physicochemical
Source text: The product obtained was insoluble in water and is soluble to the extent of at least 1% to 5% in organic solvents such as methanol. chloroform, ethyl acetate and dimethylformamide.

[5] = i.p. 1024 mg.kg^-1, between 1 and 2 hours after administration

| Compound | dose with significant/antagonistic effect on scopolamine amnesia (mouse) [mg/kg] | dose at which activity is significant / active dose, scopolamine amnesia test (mouse) [mg/kg] | dose with statistically significant effect / dose reducing diazepam amnesia (mice of the NMRI strain [1]) [mg/kg] | activity on GH levels (GH) | activity on TSH levels (TSH) | activity in the scopolamine amnesia test (mouse) | activity on prolactin levels (prolactin) | also measured |
| --- | --- | --- | --- | --- | --- | --- | --- | --- |
| NC(=O)CN1CCCC1=O [piracetam, reference compound] | 512 | 2048 | 512 | – | – | – | – | latent periods for crossing into the dark compartment or for escaping from it during Assay 1 (mouse; i.p. or oral route 60 mn before the assay, Assay 1): does not produce any effect |
| 4-fluorocinnamoylglycyl-L-phenylalanine-L-prolinamide [Example 2] | – | 2 | – | no activity at all | no activity at all | active | no activity at all | – |
| NC(=O)[C@@H]1CCCN1C(=O)[C@H](Cc1ccccc1)NC(=O)CNC(=O)C=Cc1ccccc1 [Example 1, cinnamoyl-glycyl-L-phenylalanyl-L-prolinamide] | 1 | 2 | 4 | – | – | active | – | TSH levels (TSH; 8 mg/kg IP): very slightly increased; behavioural changes with L-dopa (NMRI mice): induces behavioural changes in the treated animals such as rapid running and jumping; Irwin observations versus control animals ([2]; i.p. 256 mg.kg^-1): no difference from the control animals; Irwin observations (hypothermia) ([2]; i.p. 512 mg.kg^-1): only a slight hypothermia; hypothermia ([2]; i.p. 1024 mg.kg^-1): hypothermia (2 mice/3); ptosis ([2]; i.p. 1024 mg.kg^-1): moderate ptosis (3 mice/3); excitation [2, 5]: excitation (1 mouse/3); sedation [2, 5]: slight sedation (1 mouse/3); antagonism of the effects of scopolamine (Assay 2) (mouse; i.p. 60 minutes before Assay 1, doses of 1, 4 and 16 mg/kg): antagonizes the effects of scopolamine; antagonism of the effect of diazepam (Assay 2) (mice of the NMRI strain [1]; doses of 0.25, l and 4 mg.kg^-1, 60 minutes before Assay 1, diazepam 1 mg.kg^-1 i.p.): antagonizes the effect of diazepam in a dose-dependent manner; prolactin levels (prolactin; 2, 8 or 32 mg/kg IP, dose dependent): slightly increased; duration of sleep (mice of the NMRI strain [3]): significantly diminishes the duration of sleep; solubility in water [4]: insoluble |
| NC(=O)[C@@H]1CCCN1C(=O)[C@H](Cc1ccccc1)NC(=O)CNC(=O)C=Cc1ccc2c(c1)OCO2 [Example 3, 3,4-methylenedioxycinnamoyl-glycyl-L-phenylalanyl-L-prolinamide] | – | 2 | – | no activity at all | no activity at all | active | no activity at all | – |
| NC(=O)[C@@H]1CCCN1C(=O)[C@H](Cc1ccccc1)NC(=O)CNC(=O)Cc1ccccc1 [Example 7, phenylacetyl-glycyl-L-phenylalanyl-L-prolinamide] (PhAc-Gly-Phe-Pro-NH2) | – | 2 | – | – | – | active | – | – |
| NC(=O)[C@@H]1CCCN1C(=O)[C@H](Cc1ccccc1)NC(=O)CNC(=O)c1ccccc1 [Example 6, benzoyl-glycyl-L-phenylalanyl-L-prolinamide] (Bz-Gly-Phe-Pro-NH2) | – | 2 | – | – | – | active | – | – |
